Experimental data published in ChEMBL document CHEMBL3880411, “Multikinase inhibitors for use in the treatment of cancer” (2009).

How the values were obtained:
[1] = biological target: Tyrosine-protein kinase Yes (Homo sapiens) (UniProt P07947); experiment: Inhibition of human Yes assessed as remaining activity at 0.1 uM after 40 mins in presence of [gamma33P-ATP] by scintillation counting
[2] = Cytotoxicity against human SK-MEL-31 cells expressing B-RAF V600E mutant assessed as reduction in cell viability after 96 hrs by CellTiter-Glo luminescence assay or methylene blue assay; format: functional, cell-based
[3] = biological target: Tyrosine-protein kinase Lck (Homo sapiens) (UniProt P06239); experiment: Inhibition of human Lck assessed as remaining activity at 0.1 uM after 40 mins in presence of [gamma33P-ATP] by scintillation counting
Chain of Tyrosine-protein kinase Lck (Homo sapiens) (P06239 2-509 limits assumed): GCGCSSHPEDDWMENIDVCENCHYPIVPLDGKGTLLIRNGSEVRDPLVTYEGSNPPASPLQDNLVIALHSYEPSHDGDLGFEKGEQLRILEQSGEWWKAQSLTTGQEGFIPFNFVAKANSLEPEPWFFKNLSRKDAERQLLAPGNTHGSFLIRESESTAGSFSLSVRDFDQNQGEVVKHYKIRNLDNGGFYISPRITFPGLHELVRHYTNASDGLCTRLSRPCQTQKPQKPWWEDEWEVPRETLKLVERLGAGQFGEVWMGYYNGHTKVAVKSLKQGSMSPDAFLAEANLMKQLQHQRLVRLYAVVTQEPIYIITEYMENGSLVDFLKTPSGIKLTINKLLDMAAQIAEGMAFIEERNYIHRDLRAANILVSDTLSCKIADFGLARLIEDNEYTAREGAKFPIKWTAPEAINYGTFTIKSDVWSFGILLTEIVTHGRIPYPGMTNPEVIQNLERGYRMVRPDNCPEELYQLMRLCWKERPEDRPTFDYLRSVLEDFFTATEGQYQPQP

[4] = biological target: Proto-oncogene tyrosine-protein kinase Src (Homo sapiens) (UniProt P12931); experiment: Inhibition of human c-Src assessed as remaining activity at 1 uM after 40 mins in presence of [gamma33P-ATP] by scintillation counting
Chain of Proto-oncogene tyrosine-protein kinase Src (Homo sapiens) (P12931 2-536 limits assumed): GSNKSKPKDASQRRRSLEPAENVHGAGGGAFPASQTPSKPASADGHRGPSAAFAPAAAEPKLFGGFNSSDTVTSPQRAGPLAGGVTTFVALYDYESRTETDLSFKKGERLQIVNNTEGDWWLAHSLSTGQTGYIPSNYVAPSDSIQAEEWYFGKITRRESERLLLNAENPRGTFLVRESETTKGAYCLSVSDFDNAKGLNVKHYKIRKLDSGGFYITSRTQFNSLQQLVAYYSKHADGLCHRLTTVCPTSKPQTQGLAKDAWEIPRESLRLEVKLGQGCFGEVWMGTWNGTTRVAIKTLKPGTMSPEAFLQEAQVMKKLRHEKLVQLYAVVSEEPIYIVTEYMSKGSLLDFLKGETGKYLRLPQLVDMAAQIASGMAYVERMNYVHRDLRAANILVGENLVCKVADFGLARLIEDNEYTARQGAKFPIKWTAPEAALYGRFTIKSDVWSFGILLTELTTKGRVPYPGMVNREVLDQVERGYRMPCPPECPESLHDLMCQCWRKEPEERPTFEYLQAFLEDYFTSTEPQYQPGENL

[5] = Cytotoxicity against human HT-29 cells expressing B-RAF V600E mutant assessed as reduction in cell viability after 96 hrs by CellTiter-Glo luminescence assay or methylene blue assay; format: functional, cell-based; conditions: HT-29, 96 h
[6] = biological target: Receptor-type tyrosine-protein kinase FLT3 (Homo sapiens) (UniProt P36888); experiment: Inhibition of human Flt3 assessed as remaining activity at 1 uM after 40 mins in presence of [gamma33P-ATP] by scintillation counting
Chain of Receptor-type tyrosine-protein kinase FLT3 (Homo sapiens) (P36888 whole entry): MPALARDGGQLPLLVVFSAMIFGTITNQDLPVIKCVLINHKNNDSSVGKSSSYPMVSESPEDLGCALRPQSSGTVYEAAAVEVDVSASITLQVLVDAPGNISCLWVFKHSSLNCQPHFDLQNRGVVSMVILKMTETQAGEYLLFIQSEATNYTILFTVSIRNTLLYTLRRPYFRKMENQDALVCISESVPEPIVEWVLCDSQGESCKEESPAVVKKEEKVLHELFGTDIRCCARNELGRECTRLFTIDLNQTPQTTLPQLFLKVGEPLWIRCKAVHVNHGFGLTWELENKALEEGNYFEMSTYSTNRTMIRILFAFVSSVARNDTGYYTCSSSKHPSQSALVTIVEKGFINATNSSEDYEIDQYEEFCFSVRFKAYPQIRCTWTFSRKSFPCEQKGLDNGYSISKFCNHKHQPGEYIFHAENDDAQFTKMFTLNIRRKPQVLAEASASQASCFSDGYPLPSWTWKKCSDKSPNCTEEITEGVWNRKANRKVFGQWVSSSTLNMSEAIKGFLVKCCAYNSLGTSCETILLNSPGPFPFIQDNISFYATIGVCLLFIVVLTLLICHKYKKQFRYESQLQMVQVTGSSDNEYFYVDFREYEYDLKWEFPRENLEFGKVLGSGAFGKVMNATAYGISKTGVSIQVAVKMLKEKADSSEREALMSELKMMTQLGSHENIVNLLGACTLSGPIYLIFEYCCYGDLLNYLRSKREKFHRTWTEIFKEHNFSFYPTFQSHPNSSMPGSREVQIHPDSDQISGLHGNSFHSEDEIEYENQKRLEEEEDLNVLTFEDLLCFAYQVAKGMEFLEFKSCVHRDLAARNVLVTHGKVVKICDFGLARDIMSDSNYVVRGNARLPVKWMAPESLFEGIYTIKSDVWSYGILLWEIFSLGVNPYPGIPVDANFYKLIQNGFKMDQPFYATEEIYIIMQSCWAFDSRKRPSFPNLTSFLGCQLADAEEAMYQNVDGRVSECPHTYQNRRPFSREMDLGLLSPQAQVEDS

[7] = Cytotoxicity against human SW620 cells expressing K-ras G12V mutant assessed as reduction in cell viability after 96 hrs by CellTiter-Glo luminescence assay or methylene blue assay; format: functional, cell-based; conditions: SW-620, 96 h
[8] = biological target: Tyrosine-protein kinase Yes (Homo sapiens) (UniProt P07947); experiment: Inhibition of human Yes assessed as remaining activity at 1 uM after 40 mins in presence of [gamma33P-ATP] by scintillation counting
[9] = Antiproliferative activity against human U266 cells after 96 hrs by MTT assay; format: functional, cell-based; conditions: U-266, 96 h
[10] = Cytotoxicity against human DU4475 cells expressing B-RAF V600E mutant assessed as reduction in cell viability after 96 hrs by CellTiter-Glo luminescence assay or methylene blue assay; format: functional, cell-based; conditions: DU-4475, 96 h

Chain of Tyrosine-protein kinase Yes (Homo sapiens) (P07947 2-543 limits assumed): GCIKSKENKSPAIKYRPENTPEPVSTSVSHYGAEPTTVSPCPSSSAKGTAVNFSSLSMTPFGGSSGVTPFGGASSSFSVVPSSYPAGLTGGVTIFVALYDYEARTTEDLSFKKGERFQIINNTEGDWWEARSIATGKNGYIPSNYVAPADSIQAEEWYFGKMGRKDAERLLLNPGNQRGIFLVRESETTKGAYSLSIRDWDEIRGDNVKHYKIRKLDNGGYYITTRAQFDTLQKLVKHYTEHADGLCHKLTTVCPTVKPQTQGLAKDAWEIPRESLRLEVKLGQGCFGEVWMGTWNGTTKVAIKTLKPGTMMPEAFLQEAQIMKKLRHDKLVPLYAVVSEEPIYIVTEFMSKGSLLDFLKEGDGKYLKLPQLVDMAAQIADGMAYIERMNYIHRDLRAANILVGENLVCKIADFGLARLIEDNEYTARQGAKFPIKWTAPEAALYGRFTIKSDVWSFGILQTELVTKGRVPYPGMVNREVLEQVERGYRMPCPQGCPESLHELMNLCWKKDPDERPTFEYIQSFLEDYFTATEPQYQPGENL

For `CCNc1cc(O)c2c(c1)/C=C/C[C@H](O)[C@H](O)C(=O)/C=C\[C@@H](C)[C@H](C)OC2=O` [E-6201], the Activity [1] was 54%, the IC50 [2] was 225 nM and the Activity [3] was 27%. The Activity [4] was 1%, the IC50 [5] was 84 nM and the Activity [6] was 6%. The IC50 [7] was 282 nM, the Activity [8] was 8% and the IC50 [9] was 950 nM. It also gave an IC50 [10] of 52 nM.
